# From paper PMC12592319, “Predicting Food Effect On Oral Drug Absorption For Solubility-Epithelial Membrane Permeation-Limited Cases With Bile Micelle Solubilization” (Pharmaceutical Research, 2025)
# Where two headings read alike, the source gives them in different places.
# Columns and labels:
# [1] = cited from earlier work
# [2] = FaRLS diagnosis by Fa equation and Peff equation (Table S3, dose number); conditions: for Dose number, Fasted / Dose number, Fed: clinical dose; for Dose number, Fasted: Sdissolv in FaSSIF; for Dose number, Fed: Sdissolv in FeSSIF
# [3] = μFLUX dissolution-permeation flux experiment; conditions: for Ratio (fed/fasted) CD,final / Ratio (fed/fasted) JμFLUX: FeSSIF/FaSSIF, μFLUX dose 1/10 of the clinical dose; for fu / fraction unbound: calculated by Eq. (9) (Sdissolv,u/Sdissolv); for fraction unbound: pH 6.5, fu; for CD,final: measured after filtration, 1/10 of clinical dose, mean ± S.D., N = 3; for Pep,u,μFLUX: Peff,μFLUX/fu; for JμFLUX: average of 90 to 120 min (pranlukast 210 to 240 min); for Peff,μFLUX: calculated based on CD,final; for Time after which CD reached a plateau: donor solution; for kdiss: calculated from the initial dissolution rate in μFLUX
# Description: The μFLUX apparatus (pION Inc., MA, USA) (Fig. 2) was used for dissolution-permeation flux experiments. The membrane filter (1.54 cm^2) was coated with 25 μL of a 10% soybean lecithin-decane solution [72]. FaSSIF or FeSSIF (15 mL) was added to the donor chamber. The acceptor sink buffer (volume (VA) = 15 mL) was added to the acceptor chamber. The temperature was maintained at 37°C. The stirring rotation speed was set to 150 rpm. Each drug formulation (1/10 of the clinical dose) was added after being gently crushed by mortar and pestle. The drug concentrations in the donor (CD) and acceptor (CA) solutions were monitored using a UV probe for 2 h, except for pranlukast (4 h) (2 mm (donor) and 20 mm (acceptor) apertures). […] The final drug concentration in the donor chamber (CD, final) was measured after filtration as described above.
# The flux value (JμFLUX) was calculated from the slope of the drug concentration–time curve in the acceptor solution in the last 30 min.19 JμFLUX=ΔCA/ΔTVA/SA where SA is the membrane surface area (1.54 cm^2). The effective permeability in μFLUX (Peff, μFLUX) value was calculated from JμFLUX and CD, final.20 Peff,μFLUX=JμFLUX/CD,final
# [4] = clinical AUC ratio fed/fasted, humans; cited from earlier work
# Caco-2 = system: Caco-2; set-up: method as in PMID 9795088, PMID 10767597, PMID 15032311; conditions: cited from earlier work
# [5] = set-up: method as in PMID 20307655, PMID 19465123, PMID 17828749, PMID 23994640; conditions: pH 6.5; cited from earlier work
# [6] = Equilibrium solubility measurement (shake-flask) in blank FaSSIF, FaSSIF, FeSSIF; format: physicochemical; conditions: for Ratio (fed/fasted) Sdissolv: FeSSIF/FaSSIF, corresponds to Fafed/Fafasted predicted by Eq. (18); for solubility at 72 h: thermodynamic from solid, pH 6.5, 37°C, mean ± S.D., N = 3
# Description: A shake-flask method was used for equilibrium solubility measurement. Each drug (10 mg) was added to the 15 mL test tube. Blank FaSSIF (28.7 mM phosphate buffer, pH 6.5 adjusted by NaOH), FaSSIF (3 mM TC, 0.75 mM EL in blank FaSSIF), or FeSSIF (15 mM TC, 3.75 mM EL in blank FaSSIF) was added. The test tube was placed horizontally in a reciprocal shaker. After shaking for 72 h at 37°C (at 90 rpm, motion width: 2.5 cm), the sample was filtered (hydrophilic PVDF, φ = 4.0 mm, pore size: 0.22 µm, Merck). The first few droplets were discarded to avoid filter adsorption. The concentration of each drug was measured by UV absorbance. […] After measuring the final pH (9615S-10D Standard ToupH electrode (HORIBA Advanced Techno Co., Ltd., Kyoto, Japan)), the residual particles were collected by vacuum filtration and analyzed by powder X-ray diffraction (PXRD) (Supplemental Information Figure S1).
# [7] = Octanol-water partition/distribution coefficient (logPoct, logDoct); format: physicochemical; conditions: calculated from logPoct and pKa using the Henderson-Hasselbalch equation
# From the text: Table II Physicochemical Properties and Caco-2 Permeability of Model Drugs | column: logDoct,pH 6.5^c
# [8] = set-up: method as in PMID 31863733; conditions: previous prediction; cited from earlier work
# [9] = assumed to be the same as Caco-2 Papp, cited from earlier work
# [10] = pKa measurement (SiriusT3, UV-metric/pH-metric titration); format: physicochemical; conditions: acidic pKa; ionic strength 0.168 mol/L, 37°C; read-out: pKa (A)
# Description: The pKa measurements were performed using a SiriusT3 automatic titrator, with a spectrometric (UV-metric) or titration (pH-metric) method. The UV-metric method used a fiber optic dip probe, a deuterium lamp UV light source, and a photodiode array detector to capture the absorption spectra of a sample solution over the course of three titrations, across the pH range 2.0–12.0. […] Titrations were carried out under a controlled temperature of 37 ± 0.2°C.
# SiriusT3 software v2.0 was used to apply principal component analysis to the spectral data to resolve the molar absorptivity spectra of each sample species and determine the psKa values of the compounds in the co-solvent. The pKa values under aqueous conditions were calculated from the co-solvent data using the Yasuda-Shedlovsky extrapolation method.
# Additional potentiometric titrations were performed for each drug, which confirmed that no additional non-UV active pKas were present within the titration pH range.
# [11] = bile micelles in FaSSIF, FaSSIF
# [12] = bile micelles in FeSSIF, FeSSIF
smiles,measurement,setting,value
COc1cc(F)c(C(C)C)cc1-c1ccc(C(F)(F)F)cc1CN1C(=O)O[C@H](c2cc(C(F)(F)F)cc(C(F)(F)F)c2)[C@@H]1C [anacetrapib],logPoct,[1],> 5
O=C(Nc1cccc2c(=O)cc(-c3nnn[nH]3)oc12)c1ccc(OCCCCc2ccccc2)cc1 [Pranlukast],"Dose number, Fasted",[2],20
same,"Dose number, Fed",[2],2
same,Bound to bile micelles,[3]; FeSSIF,99.6%
same,"Ratio (fed/fasted) CD,final",[3],20
same,Ratio (fed/fasted) JμFLUX,[3],2.4
same,fu,[3]; FeSSIF,0.0041
same,fraction unbound,[3]; [11],0.038
same,fraction unbound,[3]; [12],0.004
same,"CD,final",[3]; donor FaSSIF pH 6.5,56 ± 1 µg/mL
same,"Pep,u,μFLUX",[3]; donor FaSSIF,10 ± 2 10^–5 cm/s
same,JμFLUX,[3]; donor FaSSIF,0.20 ± 0.05 10–^3 μg/cm^2/s
same,"Peff,μFLUX",[3]; donor FaSSIF,0.37 ± 0.09 10^–5 cm/s
same,"CD,final",[3]; donor FeSSIF pH 6.5,1100 ± 0^ h μg/mL
same,"Pep,u,μFLUX",[3]; donor FeSSIF,10 ± 4 10^–5 cm/s
same,JμFLUX,[3]; donor FeSSIF,0.47 ± 0.16 10–^3 μg/cm^2/s
same,"Peff,μFLUX",[3]; donor FeSSIF,0.043 ± 0.015 10^–5 cm/s
same,Ratio (fed/fasted) AUCr,[4],1.3
same,Caco-2 Papp,Caco-2,0.08 [54] 10^–6 cm/s
same,"Solubility, Blank FaSSIF",[5],3 µg/mL
same,"Solubility, FaSSIF",[5],88 µg/mL
same,"Solubility, FeSSIF",[5],800 µg/mL
same,Ratio (fed/fasted) Sdissolv,[6],9.1
Cc1ccc(-c2cc(C(F)(F)F)nn2-c2ccc(S(N)(=O)=O)cc2)cc1 [Celecoxib],"Dose number, Fasted",[2],67
same,"Dose number, Fed",[2],25
same,"Ratio (fed/fasted) CD,final",[3],1.7
same,Ratio (fed/fasted) JμFLUX,[3],1.7
same,fu,[3]; FeSSIF,0.031
same,fraction unbound,[3]; [11],0.069
same,"CD,final",[3]; donor FaSSIF pH 6.5,37 ± 1 µg/mL
same,JμFLUX,[3]; donor FaSSIF,6.7 ± 0.4 10–^3 μg/cm^2/s
same,"Peff,μFLUX",[3]; donor FaSSIF,18 ± 2 10^–5 cm/s
same,"CD,final",[3]; donor FeSSIF pH 6.5,62 ± 1 µg/mL
same,JμFLUX,[3]; donor FeSSIF,11 ± 1 10–^3 μg/cm^2/s
same,"Peff,μFLUX",[3]; donor FeSSIF,18 ± 1 10^–5 cm/s
same,Time after which CD reached a plateau,[3],20 min
same,logPoct,[1],3.5
same,"logDoct,pH 6.5",[7],3.5
same,Ratio (fed/fasted) AUCr,[4],1.6
same,Food effect predicted by the GUT framework,[8],2.3
same,Caco-2 Papp,Caco-2,18 [56] 10^–6 cm/s
same,"Solubility, Blank FaSSIF",[5],3.2 µg/mL
same,"Solubility, FaSSIF",[5],46.2 µg/mL
same,"Solubility, FeSSIF",[5],103 µg/mL
same,Ratio (fed/fasted) Sdissolv,[6],2.2
COc1ccccc1Oc1c(NS(=O)(=O)c2ccc(C(C)(C)C)cc2)nc(-c2ncccn2)nc1OCCO [Bosentan],Dn,[2]; Fasted,5.9
same,Do,[2]; Fasted,23
same,Pep,[2]; Fasted,0.73 10^-6 cm/s
same,Pep',[2]; Fasted,7.3 10^-6 cm/s
same,Dn,[2]; Fed,9.1
same,Do,[2]; Fed,9.2
same,Pep,[2]; Fed,0.34 10^-6 cm/s
same,Pep',[2]; Fed,3.4 10^-6 cm/s
same,"Dose number, Fasted",[2],23
same,"Dose number, Fed",[2],9
same,fraction unbound,"[2]; human, bile micelles in FaSSIF, pH 6.5",0.73
same,"Pep,u",[9]; Fasted,1 10^-6 cm/s
same,"Pep,u",[9]; Fed,1 10^-6 cm/s
same,kdiss,[3]; Fasted,0.0004708 s⁻¹
same,"Ratio (fed/fasted) CD,final",[3],1.9
same,Ratio (fed/fasted) JμFLUX,[3],0.91
same,kdiss,[3]; Fed,0.0007219 s⁻¹
same,fraction unbound,[3]; [11],0.73
same,fraction unbound,[3]; [12],0.34
same,"CD,final",[3]; donor FaSSIF pH 6.5,49 ± 0 µg/mL
same,"Pep,u,μFLUX",[3]; donor FaSSIF,18 ± 2 10^–5 cm/s
same,JμFLUX,[3]; donor FaSSIF,6.7 ± 0.8 10–^3 μg/cm^2/s
same,"Peff,μFLUX",[3]; donor FaSSIF,14 ± 2 10^–5 cm/s
same,"CD,final",[3]; donor FeSSIF pH 6.5,95 ± 0 µg/mL
same,"Pep,u,μFLUX",[3]; donor FeSSIF,19 ± 1 10^–5 cm/s
same,JμFLUX,[3]; donor FeSSIF,6.1 ± 0.2 10–^3 μg/cm^2/s
same,"Peff,μFLUX",[3]; donor FeSSIF,6.4 ± 0.2 10^–5 cm/s
same,Time after which CD reached a plateau,[3],20 min
same,pKa,[10],4.87
same,logPoct,[1],3.8
same,"logDoct,pH 6.5",[7],2.2
same,Ratio (fed/fasted) AUCr,[4],1.1
same,Caco-2 Papp,Caco-2,1 [52] 10^–6 cm/s
same,solubility at 72 h,"[6]; FaSSIF, read-out: Solubility, FaSSIF",41 ± 1 µg/mL
same,solubility at 72 h,"[6]; FeSSIF, read-out: Solubility, FeSSIF",87 ± 1 µg/mL
same,Ratio (fed/fasted) Sdissolv,[6],2.1
same,solubility at 72 h,"[6]; blank FaSSIF, read-out: Solubility, Blank FaSSIF",30 ± 1 µg/mL
CC1(C)CCC(CN2CCN(c3ccc(C(=O)NS(=O)(=O)c4ccc(NCC5CCOCC5)c([N+](=O)[O-])c4)c(Oc4cnc5[nH]ccc5c4)c3)CC2)=C(c2ccc(Cl)cc2)C1 [venetoclax],logPoct,[1],> 5
